# Data: patent US6331555A, “Treatment of platelet derived growth factor related disorders such as cancers” (priority 1999, dated 2001)
# “Also recorded” adds a separate entry of the source.
# What was measured:
# [1] = format: in vivo, mouse; settings: IP A10 40 mg/kg single dose
# Procedure: Plasma was prepared and frozen in liquid nitrogen. Tissues and organs were resected and immediately frozen in liquid nitrogen. After the addition of an internal standard, plasma samples were acidified with HCl and extracted with acetonitrile. The acetonitrile fraction was evaporated to dryness in a vacuum centrifuge with heating and redissolved in methanol. Tissue and organ samples were homogenized according to the weight ratio of 1:5 (w:v) in 50 mM Tris-HCl, pH 7.4, at 20,000 rev/min, using a tissue homogenizer (Brinkmann Polytron Model PT3000). After the addition of an internal standard, the homogenate was acidified with HCl and then extracted with acetonitrile. The acetonitrile fraction was then extracted with an equal volume of diethyl ether. The ether fraction was evaporated to dryness in a vacuum centrifuge with heating and redissolved in methanol.
# Samples for HPLC analysis were injected onto a Hewlett Packard Hypersil 5-μm C18 cartridge column (100×4.6 mm). […] The compounds were monitored by UV absorption at 254 nm using a Hewlett-Packard diode-array detector (HP Model 1090). Plasma and tissue concentrations were determined from standard curves using peak area for quantitation. […]
# Table XXII. […] Plasma and brain samples were prepared and analyzed by HPLC as described in Appendix 6. All results were calculated by the method of internal standardization. NT= not tested, ND= not detected.
# U118T glioma = assay: SC xenograft in mice; format: in vivo, human; settings: nu/nu, 15 mg/kg/day, day 47
# Procedure: (§1) Cell lines were grown in appropriate medium (see Appendix 1). Cells were harvested at or near confluency with 0.05% Trypsin-EDTA and pelleted at 450×g for 10 min. Pellets were resuspended in sterile PBS or media (without FBS) to a particular concentration and the cells were implanted into the hindflank of mice. Tumor growth was measured over 3 to 6 weeks using venier calipers. Tumor volumes were calculated as a product of length×width×height unless otherwise indicated. P values were calculated using the Students' t-test.
# Calu-6 lung tumor = assay: SC xenograft in mice; format: in vivo, human; settings: nu/nu, 20 mg/kg/day, day 28
# Procedure: as §1
# A549 lung tumor = assay: SC xenograft in mice; format: in vivo, human
# Procedure: as §1
# PA-1 ovarian tumor = assay: SC xenograft in mice; format: in vivo, human; settings: nu/nu, 20 mg/kg/day, day 36
# Procedure: as §1
# [2] = system: ovarian carcinoma primary tumor cells; assay: Growth of primary tumor cells from ovarian carcinoma patients; format: cell-based, human; set-up: tumor cell growth: dose or concentration left out as unconfirmed
# Procedure: Viable tumors were placed into medium by the pathologist at the referring institution immediately after surgery, and shipped to Oncotech by overnight delivery. As soon as a tumor was received, a portion was fixed in formalin for sectioning and the remainder trimmed of necrotic, connective and adipose tissues. All tumor manipulations were performed aseptically. The remaining tumor was placed into a Petri dish containing 5 mL of medium (RPMI 1640 supplemented with 10% FBS, 100 IU/mL penicillin, […] streptomycin and L-glutamine) and disaggregated mechanically with scissors into pieces 2 mm or smaller. […]
# After enzymatic dispersion into a near single-cell suspension, tumor cells were filtered through nylon mesh, washed in medium, suspended in soft agarose (0.12%) and plated at approximately 20,000 cells per well onto an agarose underlayer (0.4%) in 24-well plates. […] After the appropriate labeling period, tissue culture plates were heated at 60° C. to melt the agarose, the cells harvested with a micro-harvester onto glass fiber filters and the radioactivity determined. Percent inhibition (PCI) was determined using the formula: PCI=1-(CPM treatment group […] CPM control group). Determinations of control group proliferation were performed in quadruplicate, while treatment group proliferation was determined in triplicate. […]
# [3] = Effects of A10 on body weight and organs; format: in vivo, mouse; settings: 20 mg/kg/day, 100 day period
# Procedure: Vehicle control animals received IP administration of 100 μL PBTE:D5W (1:1, v:v) every day for 101 days, and untreated control animals received no treatments. There were eight animals in each group. Weights were measured on day 0 (one day prior to drug administration) and two times/week until experiment termination. The percent weight change was calculated as mean weight at each determination as compared to the mean weight on day 0.
# However, after several weeks, the animals gained weight at a rate similar to untreated or vehicle-treated animals.
# U373MG glioblastoma = assay: SC xenograft in mice; format: in vivo, human
# Procedure: as §1
# (§2) C6 and SKOV-3(T) cells were grown in culture, as described in "cell growth" above, and implanted into the hind flank of a female Balb/c nu/nu mouse at 3×10^6 cells (for C6 experiments), or 1×10^7 cells (for SKOV-3 experiments) in […] of PBS on Day 0. U87MG, U118MG or U373MG human glioblastoma cells (obtained from the ATCC), or A4312 were also implanted into athymic mice. […] Tumors were measured using venier calipers and tumor volume was calculated as a product of tumor length, width, and height.
# U87MG glioblastoma = assay: SC xenograft in mice; format: in vivo, human
# Procedure: as §1, §2
# SKOV3T ovarian tumor = assay: SC xenograft in mice; format: in vivo, human
# Procedure: as §1, §2
# U118 glioblastoma = assay: SC xenograft in mice; format: in vivo, human; settings: 15 mg/kg
# Procedure: as §1, §2
# A431 epidermoid tumor = assay: SC xenograft in mice; format: in vivo, human
# Procedure: as §1, §2
# [4] = mice xenotransplanted with human ovarian cancer cells
smiles,measurement,setting,value
"Cc1oncc1C(=O)Nc1ccc(C(F)(F)F)cc1 [Compound A10, 5-methylisoxazole-4 carboxylic acid-(4-trifluromethyl)-anilide]",time by which A10 completely converted and undetectable,[1],≤ 1 h
same,% Inhibition,U118T glioma,57%
same,% Inhibition,Calu-6 lung tumor,64%
same,growth of xenograft,A549 lung tumor; 12 to 20 mg/kg/day,failed to significantly inhibit the growth
same,% Inhibition,"A549 lung tumor; SCID, 15 mg/kg/day, day 48, treatment from day 29",19%
same,% Inhibition,PA-1 ovarian tumor,53%
same,tumor cell growth,[2],tumor cell growth decreased for both types of tumors
same,IC50,"[2]; Homo sapiens, range over six patients, read-out: IC50, ovarian tumors",20 to 140 µM
same,mortality,[3],no mortality was observed
same,% Inhibition,U373MG glioblastoma; 15 mg/kg,54%
same,% Inhibition,"U373MG glioblastoma; nu/nu, 15 mg/kg/day, day 37",54%
same,% Inhibition,U87MG glioblastoma; 5 mg/kg,52%
same,% Inhibition,U87MG glioblastoma; 10 mg/kg,58%
same,% Inhibition,U87MG glioblastoma; 15 mg/kg,66%
same,% Inhibition,U87MG glioblastoma; 20 mg/kg,92%
same,inhibition in tumor growth,"SKOV3T ovarian tumor; 15 mg/kg/day (DMSO), after 20 days",greater than 90%
same,cytotoxicity or mortality,SKOV3T ovarian tumor; [4],without significant cytotoxicity or mortality
same,ovarian tumor growth,SKOV3T ovarian tumor; [4],nearly complete inhibition of ovarian tumor growth
same,% Inhibition,"SKOV3T ovarian tumor; nu/nu, 15 mg/kg/day, day 21",94%
same,In Vivo inhibition,SKOV3T ovarian tumor; xenografted athymic mice,95%
same,% Inhibition,U118 glioblastoma,57%
same,effect on A431 tumor growth,"A431 epidermoid tumor; 15 mg/kg/day, DMSO",no more than 25%
same,growth of xenograft,A431 epidermoid tumor; 12 to 20 mg/kg/day,did not significantly inhibit the growth of xenotransplanted cells expressing EGF receptor; also recorded: failed to significantly inhibit the growth
same,% Inhibition,"A431 epidermoid tumor; nu/nu, 15 mg/kg/day, day 15",40%
